The source of these data is PMC12005989, “Purification, identification, and in silico screening of a multifunctional octapeptide from semen armeniacae glutelin-2 hydrolysates: restraining mechanisms to Keap1 and ACE, stability, and ferrous-transport efficiency” (Frontiers in Nutrition, 2025).

Ends that are not written are not given here.

By IC50 is commonly meant the point on the concentration scale where inhibition reaches its midpoint.

The nature of experiment [1]: Hydroxyl radical quenching, β-deoxyribose oxidation method. As to conditions: 100 μg/mL, mean ± SD, triplicate. How it is done: Next, the purification of BAG-2H is a two-step process: first, BAG-2H solution (1 g/L) was subjected to ultra-filtration on an ultra-membrane (filter aperture of 220 nm, Jingfei Membrane Equipment Factory, Luzhou, China). Next, the ultra-filtrate solution (2 mL) was chromatographically purified citing the modified procedures from Li et al. ([30]). Pre-balanced G-15 gel was loaded into a HS-MG-125 chromatographic column (Huasheng Chromatography Tech. Co., Ltd., Wuxi, China). After the BAG-2H ultra-filtrate solution has completely sunk into the column plane, the gel chromatographic column was sealed and eluted using dH2O with a constant velocity of 2.4 mL/min and monitor wavelength of 220 nm. An automatic collector (BT-160I, Thirdli Collection Equipment Co., Ltd., Guangzhou, China) was used to collect the elution, and the collection tube was changed every 5 min ([34]). After 400 min, the profiles of absorbance at 220 nm against elution time were drawn, and the separation fractions were freeze-dried using the EHI-220D lyophilizer. The ACE-inhibitory, ferrous-binding, and hydroxyl radical quenching abilities of the separation fractions were detected citing the hippuric acid ([50]), […]. During screening of the separation fractions, ACE-inhibitory and hydroxyl radical quenching abilities were the primary indexes, and the amino acid sequences of the selected fraction were analyzed.
The free radical quenching ability of samples, including superoxide, 2,2′-hydrazine-bis (3-ethylbenzothiazolin-6-sulfonic acid) diamine salt cation (ABTS^+), and hydroxyl radicals, was determined using the pyrogallol auto-oxidation, potassium persulfate, and β-deoxyribose oxidation methods, according to the same procedures from Tyagi et al. ([6]), Lin et al. ([2]), and Wang et al. ([35]), respectively. […]
Physicochemical properties and functionalities of BAG-2H peptides, including antihypertension and antioxidant activity, were in silico analyzed with the AHTpin^2 and Peptide Ranker server^3 databases ([39]), respectively. […]

Experiment [2] can be described thus: ABTS+ radical quenching, potassium persulfate method. As to conditions: 100 μg/mL; mean ± SD, triplicate. The protocol: The free radical quenching ability of samples, including superoxide, 2,2′-hydrazine-bis (3-ethylbenzothiazolin-6-sulfonic acid) diamine salt cation (ABTS^+), and hydroxyl radicals, was determined using the pyrogallol auto-oxidation, potassium persulfate, and β-deoxyribose oxidation methods, according to the same procedures from Tyagi et al. ([6]), Lin et al. ([2]), and Wang et al. ([35]), respectively. Comparison was conducted when the samples were replaced by glutathione (0.1 mg/mL).
As described by Wu et al. ([41]), the simulative gastric digestive fluid consisted of sodium chloride (0.18 mol/L), ultrapure water (180 mL), and 0.40 mg/mL of pepsin. The simulation intestinal digestive juice was composed of NaHCO3 (0.625 g/mL), bile salt (3 g/100 mL), pancreatin (0.35 mg/mL), and 180 mL ultrapure water. In a glass triangle flask, 300 mg of the antihypertensive and antioxidant BAG-2H peptides, 60 mL of ultrapure water, and 150 mL of the simulative gastric fluid were mixed thoroughly. The flask was placed at 37°C in an EDZF-C002 thermostatic vibrator with shaking rate of 140 rpm. After 90 min, 180 mL of the simulative intestinal hydrolysis fluid was added and stirred at 37°C for 2 h. […] The ACE inhibition capacity and antioxidant ability of the treated BAG-2H peptides were detected and compared to those of the undigested BAG-2H peptides.

Experiment [3] addresses T1, angiotensin-I-converting enzyme (ACE) (Oryctolagus cuniculus, UniProt P12822).
T1 construct: Rabbit lungs ACE (0.1 U) was obtained from Sigma-Aldrich (St. Louis, MO, USA); purchased Sigma-Aldrich (St. Louis, MO, USA); host or cells: rabbit lung (tissue-derived)
T1 sequence (P12822 34-1310): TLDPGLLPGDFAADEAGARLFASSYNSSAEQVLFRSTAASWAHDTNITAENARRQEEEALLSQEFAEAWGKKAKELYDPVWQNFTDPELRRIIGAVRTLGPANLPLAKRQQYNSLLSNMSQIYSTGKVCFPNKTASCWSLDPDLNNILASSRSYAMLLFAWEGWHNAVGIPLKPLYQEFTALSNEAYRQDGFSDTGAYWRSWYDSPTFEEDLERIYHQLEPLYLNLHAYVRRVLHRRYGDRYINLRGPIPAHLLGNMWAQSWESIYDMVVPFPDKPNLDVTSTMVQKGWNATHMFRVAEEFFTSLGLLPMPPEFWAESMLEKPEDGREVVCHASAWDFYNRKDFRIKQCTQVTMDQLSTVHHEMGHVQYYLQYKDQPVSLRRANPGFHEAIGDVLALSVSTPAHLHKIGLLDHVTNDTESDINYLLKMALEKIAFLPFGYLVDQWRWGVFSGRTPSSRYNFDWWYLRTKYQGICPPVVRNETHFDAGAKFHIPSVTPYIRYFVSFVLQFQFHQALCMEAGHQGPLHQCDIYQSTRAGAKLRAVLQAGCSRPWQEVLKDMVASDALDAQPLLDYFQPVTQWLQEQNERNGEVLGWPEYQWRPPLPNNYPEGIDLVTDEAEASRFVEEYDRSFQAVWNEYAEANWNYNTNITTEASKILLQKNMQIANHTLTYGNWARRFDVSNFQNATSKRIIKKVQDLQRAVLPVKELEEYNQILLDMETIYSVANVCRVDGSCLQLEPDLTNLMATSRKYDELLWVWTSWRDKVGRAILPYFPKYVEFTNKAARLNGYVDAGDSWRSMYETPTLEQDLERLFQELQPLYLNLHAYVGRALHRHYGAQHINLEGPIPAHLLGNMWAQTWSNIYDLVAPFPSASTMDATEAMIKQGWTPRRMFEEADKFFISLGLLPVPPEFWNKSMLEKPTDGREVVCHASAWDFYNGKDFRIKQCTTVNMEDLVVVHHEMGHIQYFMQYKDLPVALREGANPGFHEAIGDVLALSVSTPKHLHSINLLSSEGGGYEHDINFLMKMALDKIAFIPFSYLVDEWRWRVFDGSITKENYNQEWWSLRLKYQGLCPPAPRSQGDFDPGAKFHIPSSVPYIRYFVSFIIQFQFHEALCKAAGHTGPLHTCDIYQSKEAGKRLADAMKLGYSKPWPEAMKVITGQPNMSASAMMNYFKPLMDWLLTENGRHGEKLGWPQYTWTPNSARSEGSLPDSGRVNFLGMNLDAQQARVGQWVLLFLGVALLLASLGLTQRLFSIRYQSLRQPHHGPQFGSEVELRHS
Kind of experiment: ACE restraining capacity, hippuric acid method. It counts as biochemical, Rabbit. The settings on record: substrate HHL, absorbance 228 nm, IC50 from regression of inhibition against concentration, tests in triplicate, read-out: ACE-inhibitory activity (IC50).
Description: The hippuric acid method ([50]) was used to measure the samples’ restraining capacity against ACE citing the same procedures from Zheng et al. ([34]). The absorbance of the reaction solution at 228 nm was the hippuric acid content and was proportional to ACE activity; therefore, the restraining capacity of samples toward ACE was defined as the percentage reduction in the absorption at 228 nm between the control and sample groups.

Regarding “PVDFAGFY-ferrous chelate: ferrous chelate of PVDFAGFY prepared with ferrous chloride (also: ferrous chelate)”, the “·OH scavenging activity, before gastrointestinal” value in experiment [1] is 79.37%; in experiment [1] (listed as PVDFAGFY-Fe), 79.37% ± 4.21%b. Besides, the “ABTS+ scavenging activity, before gastrointestinal” value in experiment [2] is reported as 35.18% ± 1.16%c. For the same substance, the IC50 in experiment [3] is 101 µM.
